Source: PubChem BioAssay (NCI)
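A five-concentration, 48-hour dose response in 96-well plates underlies each endpoint, interpolated linearly between surrounding concentrations. Abbreviation: GI50, concentration required for 50% inhibition of growth. At the TGI there is no net growth.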

Legend:
Test in all cases: NCI-60 cell line screen, 48 h
[1] = system: SR leukemia
[2] = system: HOP-62 NSCLC
[3] = system: T-47D breast
[4] = system: MDA-MB-231 breast
[5] = system: OVCAR-5 ovarian
[6] = system: CCRF-CEM leukemia
[7] = system: NCI-H226 lung
[8] = system: NCI-H460 lung
[9] = system: M14 melanoma
[10] = system: NCI/ADR-RES ovarian

Molecule `O=C(c1ccco1)c1c(C(F)(F)F)nc2ccc(Cl)cc2[n+]1[O-]` has a GI50 [1] of 86.6 µM, a TGI [1] greater than 100 µM and a GI50 [2] greater than 100 µM. The TGI [2] was greater than 100 µM, the GI50 [3] was greater than 100 µM and the TGI [3] was greater than 100 µM. The GI50 [4] was greater than 100 µM, the TGI [4] was greater than 100 µM and the GI50 [5] was greater than 100 µM. It also gave a TGI [5] greater than 100 µM, a GI50 [6] greater than 100 µM and a TGI [6] greater than 100 µM. For the same molecule, the GI50 [7] was greater than 100 µM, the TGI [7] was greater than 100 µM and the GI50 [8] was greater than 100 µM. For the same molecule, the TGI [8] was greater than 100 µM, the GI50 [9] was greater than 100 µM and the TGI [9] was greater than 100 µM. For the same molecule, the GI50 [10] was greater than 100 µM and the TGI [10] was greater than 100 µM.

`CC(=O)ON1CCCC(P(=O)(OCCSC(=O)C(C)(C)C)OCCSC(=O)C(C)(C)C)C1=O` (centres undefined) gave a GI50 [1] of 0.571 µM, a TGI [1] of 64.2 µM and a GI50 [2] of 3.21 µM. It also gave a TGI [2] greater than 100 µM, a GI50 [3] of 2.08 µM and a TGI [3] greater than 100 µM. For the same molecule, the GI50 [4] was 1.34 µM, the TGI [4] was 87.8 µM and the GI50 [5] was 6.46 µM. For the same molecule, the TGI [5] was greater than 100 µM, the GI50 [6] was 0.283 µM and the TGI [6] was 67.4 µM. The GI50 [7] was 2.27 µM, the TGI [7] was 26.4 µM and the GI50 [8] was 1.28 µM. For the same molecule, the TGI [8] was 19.9 µM, the GI50 [9] was 2.11 µM and the TGI [9] was 24.9 µM. The GI50 [10] was 1.35 µM and the TGI [10] was 12.4 µM.

`C/C(N=NC(=S)N1CC2CCC(CC2)C1)=C1\C=CC=CN1O` gave a TGI [2] greater than 100 µM, a TGI [3] of 94.8 µM and a TGI [4] greater than 100 µM. It also gave a TGI [5] greater than 100 µM, a TGI [6] of 1.29 µM and a TGI [7] of 21.7 µM. The TGI [8] was 42.7 µM, the TGI [9] was 20.3 µM and the TGI [10] was 8.73 µM.

For `O=C(NC[C@H](O)CN1CCc2ccccc2C1)c1cc(NC2COC2)ncn1`, the GI50 [1] was 9.29 µM, the TGI [1] was 50.9 µM and the GI50 [2] was 37.7 µM. For the same molecule, the TGI [2] was greater than 100 µM, the GI50 [3] was 9.26 µM and the TGI [3] was greater than 100 µM. For the same molecule, the GI50 [4] was 16.1 µM, the TGI [4] was 46.9 µM and the GI50 [5] was 36.8 µM. For the same molecule, the TGI [5] was greater than 100 µM, the GI50 [6] was 26.9 µM and the TGI [6] was greater than 100 µM. It also gave a GI50 [7] of 9.88 µM, a TGI [7] of 40.2 µM and a GI50 [8] of 3.98 µM. It also gave a TGI [8] of 21.1 µM, a GI50 [9] of 23 µM and a TGI [9] greater than 100 µM. It also gave a GI50 [10] of 15.9 µM and a TGI [10] of 57.9 µM.

With `O=c1oc2ccc(-c3ccc(F)cc3F)cc2c(=O)n1-c1cccc(C(F)(F)F)c1` the GI50 [1] was 1.31 µM, the TGI [1] was 6.25 µM and the GI50 [2] was 1.73 µM. It also gave a TGI [2] of 4.57 µM, a GI50 [3] of 0.317 µM and a TGI [3] of 3.29 µM. For the same molecule, the GI50 [4] was 2.08 µM, the TGI [4] was 7.37 µM and the GI50 [5] was 4.11 µM. The TGI [5] was greater than 100 µM, the GI50 [6] was 2.42 µM and the TGI [6] was 7.85 µM. For the same molecule, the GI50 [7] was 1.43 µM, the TGI [7] was 5.19 µM and the GI50 [8] was 0.999 µM. The TGI [8] was 10.3 µM, the GI50 [9] was 0.525 µM and the TGI [9] was 4.21 µM. The GI50 [10] was 2.2 µM and the TGI [10] was 8.9 µM.

`CCC(C)(C)c1ccc(OCCCCNC(=O)c2ccc3ccccc3c2O)c(C(C)(C)CC)c1` gave a TGI [1] greater than 100 µM, a TGI [2] greater than 100 µM and a TGI [3] greater than 100 µM. The TGI [4] was greater than 100 µM, the TGI [5] was greater than 100 µM and the TGI [6] was greater than 100 µM. It also gave a TGI [7] of 44.7 µM, a TGI [8] greater than 100 µM and a TGI [9] greater than 100 µM. It also gave a TGI [10] greater than 100 µM.

`COC(=O)[C@]12CC[C@@H](C)[C@H](C)[C@@H]1C1=CC[C@@H]3[C@@]4(C)C[C@@H](O)[C@H](O)[C@@](C)(CO)C4=CC[C@@]3(C)[C@]1(C)CC2` was tested, and the GI50 [1] was 17.1 µM, the TGI [1] was 37.4 µM and the GI50 [2] was 21.3 µM. The TGI [2] was 39.2 µM, the GI50 [3] was 12.3 µM and the TGI [3] was 27.8 µM. For the same molecule, the GI50 [4] was 16.3 µM, the TGI [4] was 34.4 µM and the GI50 [5] was 18.3 µM. For the same molecule, the TGI [5] was 35.3 µM, the GI50 [6] was 18.2 µM and the TGI [6] was 37.1 µM. The GI50 [7] was 20.1 µM, the TGI [7] was 40.4 µM and the GI50 [8] was 17.1 µM. The TGI [8] was 33.8 µM, the GI50 [9] was 17.5 µM and the TGI [9] was 33.6 µM. It also gave a GI50 [10] of 16.6 µM and a TGI [10] of 33.9 µM.
